Paper PMC9727182, “Identification of pharmacokinetic markers for safflower injection using a combination of system pharmacology, multicomponent pharmacokinetics, and quantitative proteomics study” (Frontiers in Pharmacology, 2022)
Values joined by “and” are separate entries in the source; they are usually repeats but may differ in a detail not shown here. Equal entries are not always repeated.

Assays:
[1] = system: H9c2 cardiomyocytes injured by H2O2; experiment: Protection of cardiomyocytes injured by H2O2 (MTT); format: cell-based; conditions: for protection: preliminary test at maximum detected plasma concentration
Procedure: H9c2 cardiomyocytes obtained from Cell Bank of the Chinese Academy of Sciences (Shanghai, China) were cultured in DMEM (high glucose) supplemented with 1% P/S and 15% FBS in 5% CO2 at 37°C. The cells were collected with 0.25% trypsin, followed by re-seeding in 96-well multiplates with a density of 5×10^3 cells per well. The cell experiments were grouped as follows: normal group, model group (H2O2), administration groups and positive control groups (N-Acetyl-L-cysteine, NAC). […] After that, cells were incubated with 0.5 mg/ml of MTT for 4 h under standard condition, followed by addition of 150 µl DMSO into every well. The cell supernatants were finally removed and the optical density (OD) was recorded at 570 nm using a microplate reader (Thermo Fisher Scientific, United States). The protection rate of the compounds on H9c2 cardiomyocytes was calculated as (OD valueadministration group (or NAC group)-OD valuemodel group)/(OD valuenormal group-OD valuemodel group) ×100%.

[2] = Multicomponent pharmacokinetics in rat plasma after i.v. safflower injection (SI); conditions: for AUC(0-inf) / AUC(0-t) / Cmax / MRT inf / MRT last / Vd / clearance / half-life / concentration at 15 min: male, Sprague-Dawley, rat, plasma; for AUC(0-inf) / AUC(0-t) / Cmax / MRT inf / MRT last / Vd / clearance / half-life: iv; for detected mean maximum plasma concentration: rats, after administration of 4 ml/kg of SI; for concentration at 15 min: intravenous
Procedure: The animal experiments were approved by the Animal Care and Use Committee of the College of Animal Science (College of Bee Science), Fujian Agriculture and Forestry University (Approval Number: PZCASFAFU21012). 250 ± 20 g of male Sprague-Dawley (SD) rats were provided by Lab Animal Center in Fujian Medical University (Fuzhou, China).
Ten rats were divided into three groups (Low dose group, n = 4; medium and high groups, n = 3, respectively). […] For each rat, 2 ml of physiological saline was supplemented after 30 min sampling via intraperitoneal injection. The plasma samples were obtained by centrifugation at 3,000 rpm for 10 min and stored at −20°C until analysis.
Clear supernatant (5 μl) was injected into HPLC-MS for bioanalysis.
The sample was separated on a RD-C18 column (4.6 mm × 50 mm, 3.5 μm, Zhongpu Develop, China). The mobile phase incudes water with 0.1% acetic acid (A) and acetonitrile (B). […] The column temperature, flow rate and injection volume were set at 30°C, 0.5 ml/min and 5 μl, respectively.
Non-compartmental model was used to calculate the PK parameters by DAS 3.0 software (Chinese Pharmacologic Society, Beijing, China). A single-tailed t-test was carried out in the study.

[3] = Stability of 6 compounds of SI in rat plasma; conditions: for 10h in auto-sampler vials RE: extracted rat plasma; for 6h at room temperature RE / Freeze-thaw stability (three cycles) RE / Long-term stability (-80℃,15 days) RE: rat plasma
From the text: The LC-MS method was validated by linearity, limits of detection (LOD), limits of quantification (LOQ), precision, accuracy, extraction recovery, matrix effect and stability of the 6 ingredients in rat plasma. Calibration curves were plotted using weighted linear regression of the peak area ratio of analyte to the IS against the corresponding nominal concentration of the analyte. LOD and LOQ were defined as the detectable concentration at which the ratio of signal to noise was more than 3 and 10, respectively. Intra- and inter-day accuracy and precision were assessed by detecting quality control (QC) samples using five replicates of rat samples at three concentration levels on one or three validation days, respectively. Accuracy and precision were expressed by relative error (RE) and relative standard deviation (RSD), respectively. The extraction recovery and matrix effect of the 6 components at above-mentioned three concentration levels were determined. Stability was assessed under the condition of placing un-treated plasma samples at room temperature for 6 h, and extracted plasma samples in auto-sampler for 10 h, as well as placing plasma samples within freeze-thaw three cycles and at −80 °C for 15 days.

[4] = Stability in diluted SI at room temperature; conditions: analyzed at 0, 2, 4, 8, 12, 24, and 48 h
[5] = 1 h after administration (2 ml/kg of SI), preliminary test
[6] = behind 15 min after i.v. low dose administration (1 ml/kg of SI)

| concentration at 15 min ([2]; 2 ml/kg) [ng/mL] | Structure (SMILES) | detection in rat plasma [2, 5] | detection in rat plasma [2, 6] | AUC(0-inf) ([2]; 4 ml/kg) [ng·h/mL] | AUC(0-t) ([2]; 4 ml/kg) [ng·h/mL] | Cmax ([2]; 4 ml/kg) [ng/mL] | MRT inf ([2]; 4 ml/kg) [h] | MRT last ([2]; 4 ml/kg) [h] | Vd ([2]; 4 ml/kg) [L/kg] | clearance ([2]; 4 ml/kg) [mL/min/kg] | half-life ([2]; 4 ml/kg) [min] | detected mean maximum plasma concentration [2] | 10h in auto-sampler vials RE ([3]; spiked 40 ng/mL) [%] | 10h in auto-sampler vials RE ([3]; spiked 1000 ng/mL) [%] | 10h in auto-sampler vials RE ([3]; spiked 10000 ng/mL) [%] | 6h at room temperature RE ([3]; spiked 40 ng/mL) [%] | Freeze-thaw stability (three cycles) RE ([3]; spiked 40 ng/mL) [%] | Long-term stability (-80℃,15 days) RE ([3]; spiked 40 ng/mL) [%] | 6h at room temperature RE ([3]; spiked 1000 ng/mL) [%] | Stability RSD [4] [%] | other results |
| --- | --- | --- | --- | --- | --- | --- | --- | --- | --- | --- | --- | --- | --- | --- | --- | --- | --- | --- | --- | --- | --- |
| – | CC(=O)N[C@@H](CS)C(=O)O [NAC, N-Acetyl-L-cysteine, reference compound] | – | – | – | – | – | – | – | – | – | – | – | – | – | – | – | – | – | – | – | protection rate ([1]; 1 mM, positive drug): 6.45% |
| – | C[C@@H]1O[C@@H](OC[C@H]2O[C@@H](Oc3c(-c4ccc(O)c(O)c4)oc4cc(O)cc(O)c4c3=O)[C@H](O)[C@@H](O)[C@@H]2O)[C@H](O)[C@H](O)[C@H]1O [RU, rutin] | can be detected | can’t be detected | 15.1 ± 2.23 | 12.4 ± 1.37 | 39.3 ± 1.53 | 0.36 ± 0.06 | 0.22 ± 0.03 | 0.3 ± 0.02 | 14.3 | 14.4 ± 2.4 | 0.039 μg/mL and 0.06 μM | 6.25 | 2.90 | -5.96 | -4.00 | -4.50 | 7.00 | -2.48 | 2.31 | protection ([1]; 0.06 μM): absence of protection; Freeze-thaw stability (three cycles) RE ([3]; spiked 1000 ng/mL): -3.06%; Long-term stability (-80℃,15 days) RE ([3]; spiked 1000 ng/mL): 3.36%; 6h at room temperature RE ([3]; spiked 10000 ng/mL): -3.71%; Freeze-thaw stability (three cycles) RE ([3]; spiked 10000 ng/mL): 0.09%; Long-term stability (-80℃,15 days) RE ([3]; spiked 10000 ng/mL): -2.80% |
| – | O=C(O)[C@H]1O[C@@H](Oc2cc3oc(-c4ccc(O)cc4)cc(=O)c3c(O)c2O)[C@H](O)[C@@H](O)[C@@H]1O [SCU, scutellarin] | can be detected | can’t be detected | 358 ± 34 | 306 ± 12.5 | 327 ± 60 | 2.96 ± 1.49 | 1.57 ± 0.68 | 0.03 ± 0.01 | 0.167 | 170 ± 71.4 | 0.327 μg/mL and 0.7 μM | 10.63 | 0.30 | -1.48 | -6.50 | 0.00 | 6.00 | -2.90 | 4.42 | half-life [2]: ≥ 155 min; AUC(0-inf) ([2]; 2 ml/kg): 105 ± 31.5 ng·h/mL; AUC(0-t) ([2]; 2 ml/kg): 89.8 ± 21 ng·h/mL; Cmax ([2]; 2 ml/kg): 162 ± 17.4 ng/mL; MRT inf ([2]; 2 ml/kg): 2.9 ± 2.42 h; MRT last ([2]; 2 ml/kg): 1.46 ± 0.64 h; Vd ([2]; 2 ml/kg): 0.05 ± 0.02 L/kg; clearance ([2]; 2 ml/kg): 0.167 mL/min/kg; half-life ([2]; 2 ml/kg): 155 ± 110 min; protection ([1]; 0.7 μM): absence of protection; Freeze-thaw stability (three cycles) RE ([3]; spiked 1000 ng/mL): -4.00%; Long-term stability (-80℃,15 days) RE ([3]; spiked 1000 ng/mL): 2.80%; 6h at room temperature RE ([3]; spiked 10000 ng/mL): -2.06%; Freeze-thaw stability (three cycles) RE ([3]; spiked 10000 ng/mL): -5.21%; Long-term stability (-80℃,15 days) RE ([3]; spiked 10000 ng/mL): -0.81% |
| < 0.5 | Nc1ncnc2c1ncn2[C@@H]1O[C@H](CO)[C@@H](O)[C@H]1O [adenosine] | – | – | – | – | – | – | – | – | – | – | – | – | – | – | – | – | – | – | 2.74 | – |
| < 0.5 | Nc1ccn([C@@H]2O[C@H](CO)[C@@H](O)[C@H]2O)c(=O)n1 [cytidine] | – | – | – | – | – | – | – | – | – | – | – | – | – | – | – | – | – | – | 1.85 | – |
| < 0.5 | Nc1nc2c(ncn2[C@@H]2O[C@H](CO)[C@@H](O)[C@H]2O)c(=O)[nH]1 [guanosine] | – | – | – | – | – | – | – | – | – | – | – | – | – | – | – | – | – | – | – | – |
